# Reference: ChEMBL document CHEMBL1138055, “Tetraoxane antimalarials and their reaction with Fe(II)” (J Med Chem, 2006)
# Values joined by “and” are separate entries in the source; they are usually repeats but may differ in a detail not shown here. Identical values can stand only once.
# Key:
# Plasmodium falciparum [1] = test system: Plasmodium falciparum
# Description: (§1) Antimalarial activity against Plasmodium falciparum D6
# Plasmodium falciparum [2] = test system: Plasmodium falciparum; remark: listed apart in the source
# Description: (§2) Antimalarial activity against Plasmodium falciparum W2
# Plasmodium falciparum [3] = test system: Plasmodium falciparum; remark: listed apart in the source
# Description: (§3) Antimalarial activity against Plasmodium falciparum TM91C235
# Mus musculus [4] = experiment: Effect on survival of CD1 mice (Mus musculus) infected with Plasmodium berghei KBG173 at 200 mg/kg/day, perorally; assay type: functional; conditions: route oral
# Mus musculus [5] = experiment: Effect on survival of CD1 mice (Mus musculus) infected with Plasmodium berghei KBG173 at 600 mg/kg/day, perorally; assay type: functional, organism-based; set-up: route oral; conditions: route oral
# SR = experiment: Antiproliferative activity against human SR cell line after 48 hrs; assay type: functional
# Mus musculus [6] = experiment: Effect on survival of CD1 mice (Mus musculus) infected with Plasmodium berghei KBG173 at 50 mg/kg/day, perorally; assay type: functional; conditions: route oral
# IGROV-1 = experiment: Antiproliferative activity against human IGROV1 cell line after 48 hrs; assay type: functional; conditions: for CC50: read-out: LC50 (the source's name)
# HOP-62 = experiment: Antiproliferative activity against human HOP62 cell line after 48 hrs; assay type: functional; conditions: for CC50: read-out: LC50 (the source's name)
# UO-31 = experiment: Antiproliferative activity against human UO31 cell line after 48 hrs; assay type: functional; conditions: for CC50: read-out: LC50 (the source's name)
# EKVX = experiment: Antiproliferative activity against human EKVX cell line after 48 hrs; assay type: functional
# ACHN = experiment: Antiproliferative activity against human ACHN cell line after 48 hrs; assay type: functional
# U-251 = experiment: Antiproliferative activity against human U251 cell line after 48 hrs; assay type: functional; conditions: U-251, 48 h
# COLO 205 = experiment: Antiproliferative activity against human COLO 205 cell line after 48 hrs; assay type: functional; conditions: for CC50: read-out: LC50 (the source's name)
# Plasmodium falciparum [7] = experiment: microbe, parasite or virus in culture; conditions: D6
# Description: as §1
# Plasmodium falciparum [8] = experiment: microbe, parasite or virus in culture; conditions: TM91C235
# Description: as §3
# Plasmodium falciparum [9] = experiment: microbe, parasite or virus in culture; conditions: W2
# Description: as §2
# [10] = read-out: LC50 (the source's name)
smiles,measurement,setting,value
CC(=O)O[C@H]1C[C@H]2[C@@H]([C@H](OC(C)=O)C[C@@H]3CC4(CC[C@@]32C)OOC2(CCC(C(=O)Nc3ccccc3)CC2)OO4)[C@@H]2CC[C@H]([C@H](C)CCC(=O)Nc3ccccc3)[C@@]12C (stereo in doubt; 14),IC50,Plasmodium falciparum [1],0.0296 µM
same,IC90,Plasmodium falciparum [1],0.0445 µM
same,IC50,Plasmodium falciparum [2],0.0529 µM
same,IC90,Plasmodium falciparum [2],0.0742 µM
same,IC50,Plasmodium falciparum [3],0.0428 µM
same,IC90,Plasmodium falciparum [3],0.0866 µM
CC(=O)O[C@H]1C[C@H]2[C@@H]([C@H](OC(C)=O)C[C@@H]3CC4(CC[C@@]32C)OOC2(CCC(C)CC2)OO4)[C@@H]2CC[C@H]([C@H](C)CCC(=O)O)[C@@]12C (stereo in doubt; 16),Activity,Mus musculus [4],24.8 days
same,IC50,Plasmodium falciparum [1],0.00153 µM
same,IC50,Plasmodium falciparum [2],0.00098 µM
same,Activity,Mus musculus [5],29 days
same,GI50,SR,1.63 µM
same,TGI,SR,3.82 µM
same,CC50,SR; [10],8.92 µM
same,Activity,Mus musculus [6],12.2 days
CC(=O)O[C@H]1C[C@H]2[C@@H]([C@H](OC(C)=O)C[C@@H]3CC4(CC[C@@]32C)OOC2(CCC(C(N)=O)CC2)OO4)[C@@H]2CC[C@H]([C@H](C)CCC(N)=O)[C@@]12C (stereo in doubt; 8),IC50,Plasmodium falciparum [1],0.119 µM
same,IC90,Plasmodium falciparum [1],0.196 µM
same,IC50,Plasmodium falciparum [2],0.121 µM
same,IC90,Plasmodium falciparum [2],0.265 µM
same,IC50,Plasmodium falciparum [3],0.168 µM
same,IC90,Plasmodium falciparum [3],0.249 µM
CCCNC(=O)CC[C@@H](C)[C@H]1CC[C@H]2[C@@H]3[C@H](OC(C)=O)C[C@@H]4CC5(CC[C@]4(C)[C@H]3C[C@H](OC(C)=O)[C@]12C)OOC1(CCC(C(=O)NCCC)CC1)OO5 (stereo in doubt; 9),IC50,Plasmodium falciparum [1],0.0105 µM
same,IC90,Plasmodium falciparum [1],0.0178 µM
same,IC50,Plasmodium falciparum [2],0.0181 µM
same,IC90,Plasmodium falciparum [2],0.0396 µM
same,IC50,Plasmodium falciparum [3],0.0149 µM
same,IC90,Plasmodium falciparum [3],0.0632 µM
CC(=O)O[C@H]1C[C@H]2[C@@H]([C@H](OC(C)=O)C[C@@H]3CC4(CC[C@@]32C)OOC2(CCC(C)CC2)OO4)[C@@H]2CC[C@H]([C@H](C)CCC(N)=O)[C@@]12C (stereo in doubt; 15),Activity,Mus musculus [4],27.2 days
same,GI50,IGROV-1,1.54 µM
same,TGI,IGROV-1,3.07 µM
same,CC50,IGROV-1,6.14 µM
same,GI50,HOP-62,1.47 µM
same,TGI,HOP-62,2.96 µM
same,CC50,HOP-62,5.96 µM
same,TGI,UO-31,3.08 µM
same,CC50,UO-31,6.11 µM
same,GI50,EKVX,1.01 µM
same,LC50,EKVX,5.49 µM
same,TGI,EKVX,2.35 µM
same,LC50,ACHN,1.8 µM and 8.35 µM
same,TGI,ACHN,3.88 µM
same,GI50,U-251,1.78 µM
same,TGI,U-251,3.78 µM
same,CC50,U-251; [10],8.06 µM
same,Activity,Mus musculus [5],29.2 days
same,Activity,Mus musculus [6],21.4 days
same,TGI,COLO 205,3.19 µM
same,CC50,COLO 205,6.52 µM
CC(=O)O[C@H]1C[C@H]2[C@@H]([C@H](OC(C)=O)C[C@@H]3CC4(CC[C@@]32C)OOC2(CCC(C(=O)NCCN(C)C)CC2)OO4)[C@@H]2CC[C@H]([C@H](C)CCC(=O)NCCN(C)C)[C@@]12C (stereo in doubt; 12),IC50,Plasmodium falciparum [7],0.128 µM
same,IC90,Plasmodium falciparum [7],0.187 µM
same,IC50,Plasmodium falciparum [8],0.145 µM
same,IC90,Plasmodium falciparum [8],0.16 µM
same,IC50,Plasmodium falciparum [9],0.132 µM
same,IC90,Plasmodium falciparum [9],0.167 µM
CC(=O)O[C@H]1C[C@H]2[C@@H]([C@H](OC(C)=O)C[C@@H]3CC4(CC[C@@]32C)OOC2(CCC(C)CC2)OO4)[C@@H]2CC[C@H]([C@H](C)CCC(=O)O)[C@@]12C (stereo in doubt; 18),Activity,Mus musculus [4],22.6 days
same,IC50,Plasmodium falciparum [1],0.0311 µM
same,GI50,"IGROV-1; Homo sapiens, IGROV-1, 48 h",1.4 µM
same,TGI,"IGROV-1; Homo sapiens, IGROV-1, 48 h",2.76 µM
same,CC50,"IGROV-1; Homo sapiens, IGROV-1, 48 h",5.43 µM
same,GI50,"HOP-62; Homo sapiens, HOP-62, 48 h",1.64 µM
same,TGI,"HOP-62; Homo sapiens, HOP-62, 48 h",3.49 µM
same,CC50,"HOP-62; Homo sapiens, HOP-62, 48 h",7.4 µM
same,GI50,"UO-31; Homo sapiens, UO-31, 48 h",1.5 µM
same,TGI,"UO-31; Homo sapiens, UO-31, 48 h",3 µM
same,CC50,"UO-31; Homo sapiens, UO-31, 48 h",6.02 µM
same,GI50,"EKVX; Homo sapiens, EKVX, 48 h",1.45 µM
same,LC50,"EKVX; Homo sapiens, EKVX, 48 h",5.78 µM
same,TGI,"EKVX; Homo sapiens, EKVX, 48 h",2.9 µM
same,IC50,Plasmodium falciparum [2],0.0177 µM
same,Activity,Mus musculus [5],20 days
same,Activity,Mus musculus [6],10.2 days
same,GI50,"COLO 205; Homo sapiens, COLO 205, 48 h",1.98 µM
same,TGI,"COLO 205; Homo sapiens, COLO 205, 48 h",4.4 µM
same,CC50,"COLO 205; Homo sapiens, COLO 205, 48 h",9.78 µM
C[C@@H]1CC[C@H]2[C@@H](C)C(=O)O[C@@H]3O[C@@]4(C)CC[C@@H]1[C@]32OO4 [ARTEMISININ],IC50,Plasmodium falciparum [7],0.009 µM
same,IC90,Plasmodium falciparum [7],0.0128 µM
same,IC50,Plasmodium falciparum [8],0.013 µM
same,IC90,Plasmodium falciparum [8],0.0174 µM
same,IC50,Plasmodium falciparum [9],0.0067 µM
same,IC90,Plasmodium falciparum [9],0.0115 µM
